Measurements: patent US20240165259A1, “BIOORTHOGONAL REACTION SUITABLE FOR CLICK/UNCLICK APPLICATIONS” (DANA-FARBER CANCER INSTITUTE, INC., priority 2021, published 2024)
Several values for one entry are separate records, joined by “and”; a condition that tells them apart may be missing. Identical values can stand only once.

What was measured:
[1] = Stability study of alkynes and enamine N-oxide 20′ in 50% CD3CN/PBS with or without glutathione or cell lysate (19F NMR); format: physicochemical; conditions: for time over which compound is stable: 2 mM compound, 50% CD3CN/PBS (pH 7.0), 19F NMR; for degradation by 19F NMR without glutathione: pH 7.0, room temperature, 7 days
Procedure: The stability of alkynes 13′-15′ under biological conditions was evaluated (FIG. 13B). […] These stabilities compared favorably with contemporary bioorthogonal transformations (Oliveira et al., Chem. Soc. Rev. 46(16):4895-4950 (2017); Tian et al., ACS Chem. Biol. 14(12):2489-2496 (2019)). […] This observation was consistent with σ-withdrawing/n-donating alkyne substituents, such as halogens, simultaneously promoting hydroamination and attenuating conjugate addition by cellular nucleophiles.
The enamine N-oxide products were remarkably stable, especially in aqueous solutions.
All stability experiments were carried out at room temperature in 50% CD3CN in PBS (pH 7.0) with or without equimolar glutathione. pH was adjusted after the addition of glutathione. Reactions were monitored via ^19F NMR spectroscopy using α,α,α-benzotrifluoride as an internal standard (FIG. 17-FIG. 20).

[2] = Second-order kinetics of cyclooctyne hydroamination by N,N-diethylhydroxylamine (NMR; competition experiment for 10); format: physicochemical; conditions: CD3CN, room temperature; for k2 (M^−1s^−1), second order rate constant: equimolar cyclooctyne and N,N-diethylhydroxylamine, NMR, error = standard deviation of the mean, triplicate
Procedure: Using NMR spectroscopy to monitor reaction progress, the second order rate constants for the reaction of N,N-diethylhydroxyl amine (1) with a panel of cyclooctynes 2-10 in d3-acetonitrile was determined at room temperature (FIG. 3).
All kinetics experiments were carried out at room temperature in CD3CN. Reactions were monitored via NMR spectroscopy using an internal standard. Second order kinetics were performed by combining cyclooctynes and N,N-diethylhydroxylamine in a 1:1 ratio. […] The reported errors for rate constants are based on the standard deviation of the mean for experiments performed in triplicate.
The second order rate constant for difluorocyclooctyne 10 was determined using a competition experiment with carbamate 9. […] The solution was transferred to an NMR tube and the product ratio (S14:S13) was determined by ^1HNMR spectroscopy using 1,3,5-trimethoxylbenzene as an internal standard. […] The reported error for the rate constant is the standard deviation of the mean for experiments performed in triplicate.

[3] = molecular target: T1, lysozyme-cyclooctyne conjugate (Lys-COT) 11″ (Gallus gallus, UniProt P00698); assay: Time-dependent labeling of Lys-COT 11″ by TAMRA-hydroxylamines 6″-10″ (in-gel fluorescence); format: biochemical; conditions: 200 μM hydroxylamine, 10 μM Lys-COT 11″, PBS; for extent of lysozyme labeling: 1-72 h; for time to complete conversion (lysozyme labeling): room temperature
T1 construct: purchased
T1 sequence (P00698 19-147): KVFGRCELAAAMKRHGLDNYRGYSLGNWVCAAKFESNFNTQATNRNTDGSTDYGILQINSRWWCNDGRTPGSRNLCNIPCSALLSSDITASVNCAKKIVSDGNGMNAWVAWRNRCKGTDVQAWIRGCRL
Procedure: The relative rates of hydroamination between TAMRA-hydroxylamines 6″-10″ ([…]) and Lys-COT 11″ (10 μM) were evaluated by monitoring the extent of lysozyme labeling over 1-72 h in phosphate-buffered saline (PBS) at room temperature by in-gel fluorescence (FIG. 26B).
Lysozyme (CAS 12650-88-3, 50 mg/mL in deionized H2O) was diluted into phosphate-buffered saline (PBS, pH 7.4) to a final concentration of 10 mg/mL. […] The reaction solution was incubated for 1 h at room temperature. […] The concentration of lysozyme was determined by A280 measurement in denaturing buffer (pH 7.0, 6 M guanidinium, 30 mM MOPS) on a UV-vis spectrophotometer. The solution was diluted with PBS (pH 7.4) to a final concentration of 0.15 mg/mL or 0.60 mg/mL for labeling experiments. The protein solutions were snap frozen under liquid nitrogen and stored at −20° C.
Time-dependent protein labeling experiments: A solution of TAMRA-hydroxylamine 6″ (Kang, et al., J. Am. Chem. Soc. 143:5616-5621 (2021))-8″ and 10″ (1.26 μL, 5 mM in H2O; 200 μM final concentration) or 9″ (1.26 μL, 5 mM in 50% DMSO/H2O; 200 μM final concentration) was added to a solution of lysozyme-COT 11″ (30.0 μL, 0.15 mg/mL in PBS, pH 7.4). The reaction mixtures were incubated at room temperature in the dark. At each time point, an aliquot of the reaction mixture (3 uL) was removed, quenched by adding 1×SDS sample buffer (19.5 μL) and N,N-diethylhydroxylamine (7.5 uL, 100 mM in H2O; 25 mM final concentration), snap frozen in liquid nitrogen, and stored at −80° C. until all samples were ready to be loaded on the gel. After 72 h, all reactions had been quenched. All samples were thawed, and each solution (6 μL) was loaded onto a 15-well 12% SDS-PAGE gel. The gel was run at room temperature and at 175 V for 50 min. In-gel fluorescence was imaged with a Typhoon™ FLA 9500 (GE) at 532 nm with a photomultiplier tube (PMT) setting of 500 V (FIG. 35-FIG. 37).

[4] = Reactivity screening of linear alkynes 8′-15′ (NMR conversion); format: physicochemical; conditions: 10 mM alkyne, 5 equivalents hydroxylamine, CD3CN, room temperature, 48 hours
Procedure: With the desired alkynes in hand, their reactivity toward N,N-diethylhydroxylamine (2′) was examined. […] were each incubated with 5 equivalents of […] in CD3CN at room temperature, and the reaction conversions were monitored by ^1H (alkyne 8′) or ^19F (alkynes 9′-15′) NMR (FIG. 12A). […] Their conversion to the corresponding enamine N-oxides could only be achieved upon heating to 60° C. (Example 59).
Each experiment was performed with 10 mM alkyne (8′-15′) and 50 mM […] in CD3CN at room temperature. The consumption of starting material was monitored via ^1H (8′) or ^19F (9′-15′) NMR spectroscopy using α,α,α-benzotrifluoride as an internal standard (FIG. 12A).

Q: For `CC[N+]([O-])(CC)/C(Cl)=C/C(F)(F)OCCOCc1ccc(OC)cc1` [20′, (Z)-1-chloro-N,N-diethyl-3,3-difluoro-3-(2-((4-methoxybenzyl)oxy)ethoxy)prop-1-en-1-amine oxide], which “degradation in cell lysate” value ([1]; cell lysate, room temperature, 24 hours) is on record?
A: Its value is “no observable degradation”.

Q: For `COc1ccc(COCCOC(F)(F)C#CBr)cc1` [13′, 1-((2-((3-bromo-1,1-difluoroprop-2-yn-1-yl)oxy)ethoxy)methyl)-4-methoxybenzene], which “time to degradation in the presence of thiol” value ([1]; 50% CD3CN/PBS, pH 7.0, 2 mM glutathione) is on record?
A: Its value is under 10 min.

Q: For `C1#CC2(CCCCC1)OCCO2` [compound 5, 1,4-dioxaspiro[4.7]dodec-6-yne], which “k2 (M^−1s^−1), second order rate constant” value [2] is on record?
A: The value was 1.20 ± 0.09 M⁻¹ s⁻¹.

Q: Which “extent of lysozyme labeling” value [3] does the source give for `CC(C)N(O)CCOCCNC(=O)c1ccc2c(c1)C1(OC2=O)c2ccc(N(C)C)cc2Oc2cc(N(C)C)ccc21` [7″, 3′,6′-Bis(dimethylamino)-N-(2-(2-(hydroxy(isopropyl)amino)ethoxy)ethyl)-3-oxo-3H-spiro[isobenzofuran-1,9′-xanthene]-6-carboxamide] here?
A: The value was “poor labeling”.

Q: For `COc1ccc(COCCOC(F)(F)C#CI)cc1` [12′, 1-((2-((1,1-difluoro-3-iodoprop-2-yn-1-yl)oxy)ethoxy)methyl)-4-methoxybenzene], which “reactivity toward N,N-dialkylhydroxylamine (NMR conversion)” value [4] is on record?
A: The value was “moderate reactivity”.

Q: Which “rate acceleration over cyclooctyne (2)” value [2] does the source give for `O=C(Nc1ccc([N+](=O)[O-])cc1)OC1C#CCCCCC1` (centres unmarked) [compound 9, cyclooct-2-yn-1-yl (4-nitrophenyl)carbamate] here?
A: The value was 120 fold.

Q: And the “k2 (M^−1s^−1), second order rate constant” value [2]?
A: Its value is 3.87 M⁻¹ s⁻¹ and 3.87 ± 0.55 M⁻¹ s⁻¹.

Q: For `C#CC(F)CCOCc1ccc(OC)cc1` (centres unmarked) [9′, 1-(((3-fluoropent-4-yn-1-yl)oxy)methyl)-4-methoxybenzene], which “reactivity toward N,N-dialkylhydroxylamine (NMR conversion)” value [4] is on record?
A: The value was “no conversion”.

Q: Which “extent of lysozyme labeling” value [3] does the source give for `CN(C)c1ccc2c(c1)Oc1cc(N(C)C)ccc1C21OC(=O)c2ccc(C(=O)NCCOCCN(O)C(C)(C)C)cc21` [8″, N-(2-(2-(tert-Butyl(hydroxy)amino)ethoxy)ethyl)-3′,6′-bis(dimethylamino)-3-oxo-3H-spiro[isobenzofuran-1,9′-xanthene]-6-carboxamide] here?
A: The value was “poor labeling”.

Q: Which “time over which compound is stable” value [1] does the source give for `COc1ccc(COCCOC(F)(F)C#CCl)cc1` [14′, 1-((2-((3-chloro-1,1-difluoroprop-2-yn-1-yl)oxy)ethoxy)methyl)-4-methoxybenzene] here?
A: The value was at least 2 weeks.

Q: What about the “degradation by 19F NMR without glutathione” value ([1]; 50% CD3CN/PBS) of the same compound?
A: The value was “no degradation”.

Q: With `FC1C#CCCCCC1` (centres unmarked) [compound 7, 3-fluorocyclooct-1-yne] as the compound, how does the “k2 (M^−1s^−1), second order rate constant” value [2] read?
A: The value was 2.71 ± 0.43 M⁻¹ s⁻¹.

Q: Which “k2 (M^−1s^−1), second order rate constant” value [2] does the source give for “dibenzoazacyclooctyne [compound 8, reference compound]” here?
A: The value was 2.77 ± 0.13 M⁻¹ s⁻¹.

Q: Which “time to complete conversion (lysozyme labeling)” value [3] does the source give for `CN(C)c1ccc2c(c1)Oc1cc(N(C)C)ccc1C21OC(=O)c2ccc(C(=O)N3CCN(O)CC3)cc21` [10″, 3′,6′-Bis(dimethylamino)-6-(4-hydroxypiperazine-1-carbonyl)-3H-spiro[isobenzofuran-1,9′-xanthen]-3-one] here?
A: The value was at most 10 h.

Q: Which “reactivity toward N,N-dialkylhydroxylamine (NMR conversion)” value [4] does the source give for `C#CCOCc1ccc(OC)cc1` [8′, 1-methoxy-4-((prop-2-yn-1-yloxy)methyl)benzene] here?
A: The value was “no conversion”.

Q: For `CN(C)c1ccc2c(c1)Oc1cc(N(C)C)ccc1C21OC(=O)c2ccc(C(=O)NCCOCCN(O)Cc3ccccc3)cc21` [9″, N-(2-(2-(Benzyl(hydroxy)amino)ethoxy)ethyl)-3′,6′-bis(dimethylamino)-3-oxo-3H-spiro[isobenzofuran-1,9′-xanthene]-6-carboxamide], which “time to complete conversion (lysozyme labeling)” value [3] is on record?
A: Its value is at most 6 h.

Q: For `C#CC(F)(F)OCCOCc1ccc(OC)cc1` [11′, 1-((2-((1,1-difluoroprop-2-yn-1-yl)oxy)ethoxy)methyl)-4-methoxybenzene], which “reactivity toward N,N-dialkylhydroxylamine (NMR conversion)” value [4] is on record?
A: The value was “moderate reactivity”.

Q: Which “reactivity toward N,N-dialkylhydroxylamine (NMR conversion)” value [4] does the source give for `C#CC(F)(F)CCOCc1ccc(OC)cc1` [10′, 1-(((3,3-difluoropent-4-yn-1-yl)oxy)methyl)-4-methoxybenzene] here?
A: The value was “partial conversion”.

Q: For `CC(=O)OC1C#CCCCCC1` (centres unmarked) [compound 6, cyclooct-2-yn-1-yl acetate], which “k2 (M^−1s^−1), second order rate constant” value [2] is on record?
A: Its value is 2.13 ± 0.03 M⁻¹ s⁻¹.

Q: Which “time over which compound is stable” value [1] does the source give for `COc1ccc(COCCC(F)(F)C#CCl)cc1` [15′, 1-(((5-chloro-3,3-difluoropent-4-yn-1-yl)oxy)methyl)-4-methoxybenzene] here?
A: The value was at least 1 weeks.

Q: What about the half-life ([1]; 50% CD3CN/PBS with 2 mM glutathione, pH 7, 50% CD3CN/PBS, pH 7.0, 2 mM glutathione, room temperature (500 μM compound elsewhere in the source), read-out: half-life in the presence of glutathione (converted)) of the same compound?
A: The half-life was 43 h.

Q: What about the “degradation by 19F NMR without glutathione” value ([1]; 50% CD3CN/PBS) of the same compound?
A: The value was “no degradation”.

Q: For `OC1C#CCCCCC1` (centres unmarked) [compound 4, cyclooct-2-yn-1-ol], which “k2 (M^−1s^−1), second order rate constant” value [2] is on record?
A: Its value is 1.19 ± 0.15 M⁻¹ s⁻¹.
